Assays:
[1] = Zeta potential of cationic nanofibers before and after drug encapsulation (piperacillin); type: physicochemical; conditions: for zeta potential of nanofibers after drug loading: after piperacillin loading; for zeta potential of nanofibers before drug loading: before piperacillin loading
From the text: The zeta potential of cationic nanofibers before and after drug encapsulation was investigated using the drug piperacillin and C-4 and C-14. […] The zeta potential values of nanofibers of C-14 before and after drug loading were 36.3 and 21.1 mV, respectively. The reduced zeta potential was attributed to the electrostatic interaction between cationic nanofiber and the drug. This proves the formation of a complex between cationic nanofiber and the drug.

[2] = Critical micelle concentration of cationic compounds; type: physicochemical; conditions: in water
[3] = Nanofiber morphology by TEM; type: physicochemical; conditions: C-4 200 mg/L, C-14 80 mg/L
Protocol: The morphologies of the cationic compounds were analyzed by TEM (FEI Tecnai G^2 F20 electron microscope). Cationic compounds solution (5 microliters) were placed on a copper grid coated with carbon film and incubated for 1 minute. Phosphotungstic acid solution (0.1 w/v, 5 microliters) was applied and incubated for another minute. The extra sample on the grid was absorbed by filter paper. The samples were air-dried at room temperature. The TEM observations were carried out with an electron kinetic energy of 200 keV.
FIGS. 2A to 2C are transmission electron micrographs (TEM) of a cast film of the nanofibers formed with C-4 at different magnifications.

[4] = tested on: S. aureus (ATCC No. 6538); experiment: MIC by broth microdilution (OD600 growth inhibition); type: cell-based, Staphylococcus aureus; conditions: for growth inhibition of S. aureus by nanofibers alone (OD): blank nanofibers without drug
Protocol: The minimum inhibitory concentrations (MICs) of the penG-loaded nanofibers were measured using a broth microdilution method. First, penG-loaded nanofiber solutions were diluted to give final penG concentrations of 0.05, 0.1, 0.5, 1.0, 5.0 and 10.0 mg/L. S. aureus was grown in tryptic soy broth (TSB) at 37° C. with 300 rpm. The optical density (OD) of the S. aureus solution was adjusted to OD600 nm=0.1 by the addition of TSB. This S. aureus solution was further diluted 100 times (5.7×10^6 CFU/mL). The penG-loaded nanofiber solution (100 microliters) was transferred to each well of a 96 well plate (NUNC), followed by the addition of 100 microliters of the S. aureus solution. TSB was used as a control. The optical density readings of S. aureus solutions were monitored by measuring OD600 nm at predetermined times (0 hours and 18 hours). The assay was performed in four replicates for each sample and the experiments were repeated at least three times.

[5] = Nanofiber dimensions by AFM; type: physicochemical; conditions: film/solution on mica
Protocol: Atomic force microscopy (AFM) images were acquired on commercial instrumentation under fluid in intermittent contact (‘tapping’) mode at a 0.5 Hz scan rate with silicon on nitride cantilevers of spring constant about 0.35 N/m. For this study, images were collected over scan areas from 1×1 micrometer to 10×10 micrometers at 1024×1024 pixel resolution. Samples were prepared by depositing 60 microliters of polymer solution (at a concentration appropriate for imaging) in water on mica. The statistical mean height (zm) of the nanoparticles was obtained through Gwyddion software for particle analysis using height threshold algorithm.
The dry nanofiber AFM (FIG. 3A) and solution AFM (FIGS. 3B and 3C) of nanofibers formed with C-4 show anisotropic structures having considerably shorter lengths and an average diameter of 4 nm.

| SMILES | zeta potential of nanofibers after drug loading [1] | zeta potential of nanofibers before drug loading [1] | CMC [2] | fiber diameter (TEM) [3] | fiber length (TEM) [3] | growth inhibition of S. aureus by nanofibers alone (OD) [4] | minimum concentration suppressing growth (MIC) ([4]; penG concentration, 18 hours, 5.7×10^6 CFU/mL, TSB) | average fiber diameter (AFM) [5] |
| --- | --- | --- | --- | --- | --- | --- | --- | --- |
| NCc1ccc(CNC(=O)Nc2ccc(CNC(=O)c3ccc(C(=O)NCc4ccc(NC(=O)NCc5ccc(CN)cc5)cc4)cc3)cc2)cc1 [Compound C-14] | 21.1 mV | 36.3 mV | 20 mg/L | ~5 nm | several hundred | do not inhibit growth |  |  |
| CC1(C)S[C@@H]2[C@H](NC(=O)Cc3ccccc3)C(=O)N2[C@H]1C(=O)[O-].[K+] [penG, Penicillin G potassium salt, reference compound] |  |  |  |  |  |  | 0.05 µg/mL |  |
| NCCCCNC(=O)Nc1ccc(CNC(=O)c2ccc(C(=O)NCc3ccc(NC(=O)NCCCCN)cc3)cc2)cc1 [Compound C-4] | 23.1 mV | 35.2 mV | 12 mg/L |  | several hundred | do not inhibit growth |  | 4 nm |
